Data: patent US12570661B2, “Isoform-specific aldehyde dehydrogenase inhibitors” (The Board of Trustees of the Leland Stanford Junior …, priority 2020, dated 2026)
Like-named read-outs stand apart in the source and are kept apart here.

How the values were obtained:
[1] = test system: SW480 cells (spheroid); assay: Matrigel spheroid growth / viability assay, SW480; assay type: cell-based; conditions: for effect on SW480 spheroid formation: 2-μM dose; for GI50: Homo sapiens, SW480, 168 h
Method: To prepare Matrigel-coated culture plates, 96-well and 24-well plates were placed on ice and coated with 25 μL or 300 μL, respectively, of Matrigel matrix (Corning, LDEV-free) that had been thawed overnight at 4° C. The plates were then placed in a 37° C. incubator for 30 min to allow the Matrigel to solidify. SW480 or HCT116 cells were suspended in spheroid culture medium (RPMI-1640 containing 20 ng/mL recombinant human epidermal growth factor (Abcam, ab9697), 20 ng/mL recombinant human fibroblast growth factor (BioVision, 4037), 5 μg/mL heparin (Sigma), 1× N-2 supplement (Thermo Fisher Scientific), 100 U/mL penicillin, and 100 μg/mL streptomycin) and then seeded into the 96-well and 24-well Matrigel-coated plates at densities of 1,000 or 5,000 cells/well and total well volumes of […] or 1 mL, respectively. Compounds were diluted in spheroid culture medium and added to the wells, and the spheroid were grown at 37° C. with 5% CO2 for 7 days.
To quantify spheroid growth at the 7-day endpoint, unstained spheroids were imaged with phase-contrast illumination using a Keyence BZ-X710 microscope. Some cultures were also stained with crystal violet to enable brightfield imaging. Briefly, the Matrigel spheroids cultures were treated with PBS containing 0.5% crystal violet and 5% methanol for 15 min at 37° C. and then gently washed 4×5 min with PBS. Spheroid sizes were quantified with ImageJ (Fiji) software using masks created with the default “Threshold” function and foreground/background adjustments to optimize masking fidelity. The full field of view was then selected for “Analyze Particles” analysis, providing numbered list of each spheroid and its area in the micrograph. In the few cases that two adjacent spheroids were treated as one object by the image processing software, their measurements were manually corrected using the “Freehand Selections” tool. To exclude background and debris from dead cells, spheroids with areas less than 500 μm^2 were excluded from the image analyses.
(§1) SW480 or HCT116 cells were seeded into regular or Matrigel-coated 96-well plates at a density of 1000 cells/well. The cells were cultured in the corresponding adherent or spheroid culture medium (200 μL/well) containing the designated compounds or an equivalent amount of DMSO vehicle. Each culture was maintained for 7 days, and then cell viabilities were measured using a CellTiter-Glo 3D Cell Viability Assay kit (Promega). Briefly, 100 μL of the culture medium was removed from each well and replaced with 100 μL 3D Cell Assay reagent. The cells in each well were next homogenized by vigorous pipetting, and the plate was incubated for 10 min at room temperature to stabilize the chemiluminescent signal. A 150-μL aliquot from each well was then transferred into a white opaque 96-well assay plate (flat-bottom and non-treated; Corning Costar) and luminescence intensities were measured with a Veritas microplate luminometer (Turner BioSystems).

[2] = target: T1, ALDH1B1 (Homo sapiens, UniProt P30837); assay: ALDEFLUOR assay of cellular ALDH1B1 activity in ALDH1B1-transfected ALDH1A3−/− A375 cells; assay type: cell-based; conditions: for IC50: ALDEFLUOR, ALDH1B1-overexpressing ALDH1A3−/− A375 cells, read-out: ALDH1B1(in cellulo) IC50
T1 sequence (P30837 18-517): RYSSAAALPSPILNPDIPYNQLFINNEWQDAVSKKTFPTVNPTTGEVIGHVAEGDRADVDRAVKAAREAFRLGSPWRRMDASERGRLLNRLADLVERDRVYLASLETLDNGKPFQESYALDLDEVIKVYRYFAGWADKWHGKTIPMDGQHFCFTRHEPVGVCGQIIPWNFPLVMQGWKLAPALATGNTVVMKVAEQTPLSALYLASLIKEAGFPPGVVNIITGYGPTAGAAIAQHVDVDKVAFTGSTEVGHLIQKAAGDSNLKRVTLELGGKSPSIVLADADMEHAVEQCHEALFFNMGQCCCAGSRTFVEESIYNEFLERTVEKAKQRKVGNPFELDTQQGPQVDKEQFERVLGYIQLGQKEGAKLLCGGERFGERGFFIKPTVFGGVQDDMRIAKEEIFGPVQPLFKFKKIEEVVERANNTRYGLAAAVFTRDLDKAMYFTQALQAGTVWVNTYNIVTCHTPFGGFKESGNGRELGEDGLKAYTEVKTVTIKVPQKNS
Method: ALDH1A3^−/− A375 cells were seeded into a 6-well plate at a density of 5×10^5 cells/well and cultured for 24 h. The cells were then transfected with either pCMV6-entry, pCMV6-GFP (Addgene, plasmid 11153), or pCMV-ALDH1B1. After 24 h, the media was replaced and transfection efficiencies were estimated by the EGFP-positive cells in the pCMV-GFP-transfected well. The cells were cultured for another 24 h and their ALDH activities were quantified using the ALDEFLUOR assay. Briefly, the cells were isolated from the plate with trypsin and resuspended in ALDEFLUOR assay buffer (STEMCELL Technologies) at a concentration of 4×10^5 cells/mL. Each ALDEFLUOR assay used 0.5 mL of this cell suspension, and the cells were treated with individual compounds for 15 min at 37° C. and 5% CO2. The cell suspensions were then treated with 2.5 μL ALDEFLUOR reagent and incubated for an additional 30 min at 37° C. and 5% CO2. The cells were then collected by centrifugation (450×g) for 5 min at room temperature, resuspended in 200 μL assay buffer, and analyzed with an LSR II flow cytometer (BD Biosciences) at the Stanford FACS facility.

[3] = HEK-293T cytotoxicity (cell viability) assay; assay type: cell-based; conditions: human, HEK-293T cells; adherent HEK-293T, 4-5 days, CellTiter-Glo; read-out: HEK293T GI50
Method: HEK-293T cells were seeded into a 96-well plate at a density of 5×10^3 cells/well and treated with varying concentrations of selected compounds or an equivalent amount of DMSO vehicle. The cells were cultured for 4-5 days without a media change, and after the DMSO-treated cells approached 100% confluence, the cell viabilities were measured using a CellTiter-Glo 3D Cell Viability Assay kit (Promega) and a Veritas microplate luminometer (Turner BioSystems) as described above.

[4] = test system: SW480 cells (adherent); assay: Cell viability assay, adherent SW480 cultures; assay type: cell-based, human; conditions: adherent culture, 7 days
Method: as §1

[5] = Matrigel spheroid culture, 7 days, read-out: Spheroid SW480 GI50

| SMILES | effect on SW480 spheroid formation [1] | effect on ALDH1B1-dependent ALDEFLUOR signal (cellular ALDH1B1 activity) ([2]; flow cytometry) | GI50 [1, 5] [nM] | GI50 [3] [nM] | GI50 ([4]; Homo sapiens, SW480, 168 h) [nM] | IC50 [2] [nM] | GI50 ([1]; read-out: Spheroid SW480 GI50 (nM), Matrigel spheroid culture, 7 days) [nM] | GI50 [4] [nM] |
| --- | --- | --- | --- | --- | --- | --- | --- | --- |
| COc1ccccc1-n1cc(-c2ccccn2)[n+]2c1CCCCC2 [Compound 63] | did not impede the growth | had no effect | – | – | – | – | – | – |
| COc1ccccc1C1=CN(c2ccc(-c3ccccc3)cc2)C2=NCCCCN12 [HPI-273] | – | – | 1600 | 2800 | 5800 | 35 | – | – |
| COc1ccccc1-n1cc(-c2ccc(-c3ccccc3)cc2)[n+]2c1CCCCC2 [Imidazolium 2] | strongly suppressed SW480 spheroid formation | – | 820 | 230 | 570 | 38 | – | – |
| COc1ccccc1-c1ccc(-c2cn(-c3ccccc3OC)c3[n+]2CCCCC3)cc1.[Br-] [Imidazolium 8] | strongly suppressed SW480 spheroid formation | – | 960 | 160 | 850 | 22 | – | – |
| COc1ccccc1C1=CN(c2ccc(-c3ccccc3)cc2)C2=NCCCN12 [STL5-T-0002] | – | – | – | 8900 | – | 110 | 750 | 8200 |
